The source of these data is article PMC9120017, “Inhibition mechanism of the chloride channel TMEM16A by the pore blocker 1PBC” (Nature Communications, 2022).

In brackets after ≈: the same amount, converted by molar mass. Several values for one entry are separate records, joined by “and”; a condition that tells them apart may be missing. Equal entries are not always repeated.

One data set addresses T1, wild-type mouse TMEM16A (Mus musculus, UniProt Q8BHY3).
T1 construct: expressed in transfected cells; host or cells: HEK293T
T1 sequence (Q8BHY3 1-960): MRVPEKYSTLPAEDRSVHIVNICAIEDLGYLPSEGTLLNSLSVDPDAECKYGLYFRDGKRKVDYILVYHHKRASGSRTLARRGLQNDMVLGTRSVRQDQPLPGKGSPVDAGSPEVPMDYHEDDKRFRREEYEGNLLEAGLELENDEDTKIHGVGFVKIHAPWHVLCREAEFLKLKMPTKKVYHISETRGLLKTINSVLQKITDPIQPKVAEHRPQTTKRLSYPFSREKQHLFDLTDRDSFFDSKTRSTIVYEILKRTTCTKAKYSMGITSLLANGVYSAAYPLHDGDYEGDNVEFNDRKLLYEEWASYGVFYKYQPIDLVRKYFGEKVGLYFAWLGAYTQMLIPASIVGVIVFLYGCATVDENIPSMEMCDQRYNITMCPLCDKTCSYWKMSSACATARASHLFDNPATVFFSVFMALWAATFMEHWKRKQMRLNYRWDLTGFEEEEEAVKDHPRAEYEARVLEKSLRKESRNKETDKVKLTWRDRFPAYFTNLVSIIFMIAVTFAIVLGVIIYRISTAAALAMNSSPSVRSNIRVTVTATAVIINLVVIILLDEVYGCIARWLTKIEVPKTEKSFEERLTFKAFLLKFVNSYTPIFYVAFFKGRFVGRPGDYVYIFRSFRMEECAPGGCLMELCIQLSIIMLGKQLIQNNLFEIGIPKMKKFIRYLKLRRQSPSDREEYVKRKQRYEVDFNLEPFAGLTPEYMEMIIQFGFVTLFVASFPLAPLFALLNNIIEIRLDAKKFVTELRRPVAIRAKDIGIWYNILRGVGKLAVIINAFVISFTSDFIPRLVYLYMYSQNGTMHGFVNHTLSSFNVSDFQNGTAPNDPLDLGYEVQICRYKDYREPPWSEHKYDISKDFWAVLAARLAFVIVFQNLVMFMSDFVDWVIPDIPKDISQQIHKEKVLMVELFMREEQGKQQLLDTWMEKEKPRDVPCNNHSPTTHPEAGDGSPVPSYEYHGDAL
In words: Global fit of 1PBC inhibition profiles to an open-channel block mechanism. The data set is classed as cell-based. The source says: The inhibition profiles of 1PBC at different Ca^2+ concentrations were fitted to a mechanism assuming that the blocker preferentially binds to the open state. This was incorporated by adding a blocker binding step to the open state in a gating mechanism that we described previously[28] (Supplementary Fig. 9a). The matrix notation of this mechanism[73] is 4 Q=−k01−bk07v07^δb/2k0100000bk07v07^δb/2k10−k10−k12k12000000k21−k21−k23−k24k23k2400000k32−k32−k35v35^δCa/20k35v35^δCa/20000xk42v42^δCa/20−xk42v42^δCa/2−k45k4500000xk53v53^δCa/2k54−xk53v53^δCa/2−k54−k56v56^δCa/2k56v56^δCa/2000000xk65v65^δCa/2−xk65v65^δCa/20k70v70^δb/2000000−k70v70^δb/2 where x and b are the molar concentration of Ca^2+ and the blocker respectively, and the subscripts indicate the transition described by the rate constant k in s^−1, for example, k01 corresponds to the rate constant of the transition from state 0 to 1. δb and δCa are the fraction of membrane potential that modulates the corresponding transitions. […]
The equilibrium occupancy of states was calculated using[73],[74]7 P∞=P(0)(Vλ=0V^−1λ=0) where P(0) is the initial occupancy and V can be obtained from the Eigen decomposition of Q8 Q=VΛV^−1 and9 Λ=λ1⋱λnV=v11⋯vn1⋮⋱⋮v1n⋯vnn are the Eigenvalue and Eigenvector matrices respectively. The open probability calculated using Eq. 7 was used to compute the squared difference for each data point. […]

Data set [1] in a line: Solubility of 1PBC in aqueous solution. The data set is classed as physicochemical.

In the case of `N#Cc1c(C(F)(F)F)cc(O)n2c1nc1ccccc12` [1PBC], at wild-type mouse TMEM16A (fit at +80 and −80 mV), the “Apparent valence δb” value was ~ 0.27 and 0.27 ± 0.025. For the same compound, the Kd on wild-type mouse TMEM16A (zero mV, read-out: Kd 1PBC (open state)) is ~3.6 µM and 3.6 µM. The compound also came in with a solubility in data set [1] of roughly 100 µM (≈ 27.7 µg/mL).
